# Source: patent US9670227B2, “Thienopyrimidine derivatives, a process for their preparation and pharmaceutical compositions containing them” (LES LABORATOIRES SERVIER, priority 2013, dated 2017)
# Where two headings read alike, the source gives them in different places.
# What was measured:
# [1] = molecular target: Mcl-1 protein (UniProtKB primary accession number: Q07820) (Homo sapiens, UniProt Q07820); assay: Inhibition of Mcl-1 by fluorescence polarisation, Method 1; type: binding; conditions: read-out: IC50 (M) Mcl-1 FP
# Chain of Mcl-1 protein (Q07820 whole entry): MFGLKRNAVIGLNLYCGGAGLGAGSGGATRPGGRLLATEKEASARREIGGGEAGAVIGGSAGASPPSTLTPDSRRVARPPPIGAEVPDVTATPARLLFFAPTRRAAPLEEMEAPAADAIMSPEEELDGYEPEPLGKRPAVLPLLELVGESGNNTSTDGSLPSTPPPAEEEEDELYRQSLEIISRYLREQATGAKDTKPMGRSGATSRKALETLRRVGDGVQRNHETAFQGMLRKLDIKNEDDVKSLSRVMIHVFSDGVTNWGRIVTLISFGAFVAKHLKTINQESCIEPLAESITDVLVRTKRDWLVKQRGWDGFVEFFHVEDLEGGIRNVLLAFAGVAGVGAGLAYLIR
# Outline: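 An 11-point DMSO dilution of compound is mixed with buffer (10 mM HEPES, 150 mM NaCl, 0.05% Tween 20, pH 7.4) carrying 1 nM fluorescein-labelled ligand and 5 nM Mcl-1, final concentrations. Displacement is monitored by fluorescence polarisation.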
# [2] = tested on: H929 multiple myeloma tumour line; assay: In vitro cytotoxicity, Microculture Tetrazolium Assay; type: cell-based; conditions: H929 cells, 48 hours exposure, read-out: IC50 (μM) MTT H929
# Procedure: The cytotoxicity studies were carried out on the H929 multiple myeloma tumour line.
# The cells are distributed onto microplates and exposed to the test compounds for 48 hours.
# [3] = fluorescence polarisation test, Method 2 values are underlined in the patent (underlining not visible here)
# [4] = Homo sapiens, NCI-H929, 48 h, MTT
# [5] = fluorescence polarisation, Method 1, or Method 2
Structure (SMILES),"IC50 [1, 3]","IC50 [1, 5]","IC50 [2, 4]",also measured
"Cc1c(-c2c(-c3ccc(F)cc3)sc3ncnc(OC(Cc4ccccc4OCc4ccnc(Cl)c4)C(=O)O)c23)ccc(OCCN2CCN(C)CC2)c1Cl [Example 19, (2R)-2-{[(5Sa)-5-{3-chloro-2-methyl-4-[2-(4-methylpiperazin-1-yl)ethoxy]phenyl}-6-(4-fluorophenyl)thieno[2,3-d]pyrimidin-4-yl]oxy}-3-{2-[(2-chloropyridin-4-yl)methoxy]phenyl}propanoic acid]",4.4e-09 M,,0.064 µM,
"COc1ccccc1CC(Oc1ncnc2sc(-c3ccco3)c(-c3ccc(OC4CCCN(C)C4)c(Cl)c3C)c12)C(=O)O (single isomer, unassigned) [Example 301, (2R)-2-{[(5Sa)-5-{3-chloro-2-methyl-4-[((3R or S)-1-methylpiperidin-3-yl)oxy]phenyl}-6-(furan-2-yl)thieno[2,3-d]pyrimidin-4-yl]oxy}-3-(2-methoxyphenyl)propanoic acid]",1.2e-08 M,,,IC50 ([2]; MTT): 0.108 µM
"Cc1c(-c2c(-c3ccco3)sc3ncnc(OC(Cc4ccccc4OCc4ncc(-c5ccccc5)cn4)C(=O)O)c23)ccc(OCCN2CCN(C)CC2)c1Cl [Example 283, (2R)-2-{[(5Sa)-5-{3-chloro-2-methyl-4-[2-(4-methylpiperazin-1-yl)ethoxy]phenyl}-6-(furan-2-yl)thieno[2,3-d]pyrimidin-4-yl]oxy}-3-{2-[(5-phenylpyrimidin-2-yl)methoxy]phenyl}propanoic acid]",2.6e-08 M,,0.25 µM,
"Cc1c(-c2c(-c3ccc(F)cc3)sc3ncnc(OC(Cc4ccccc4OCc4ccnn4C4CCCCC4)C(=O)O)c23)ccc(OCCN2CCN(C)CC2)c1Cl [Example 73, (2R)-2-{[(5Sa)-5-{3-chloro-2-methyl-4-[2-(4-methylpiperazin-1-yl)ethoxy]phenyl}-6-(4-fluorophenyl)thieno[2,3-d]pyrimidin-4-yl]oxy}-3-{2-[(1-cyclohexyl-1H-pyrazol-5-yl)methoxy]phenyl}propanoic acid]",8.3e-09 M,,0.122 µM,
"Cc1cc(-c2sc3ncnc(OC(Cc4ccccc4)C(=O)O)c3c2-c2ccc(OCCN3CCN(C)CC3)c(Cl)c2C)cs1 [Example 514, (2R)-2-{[(5Sa)-5-{3-chloro-2-methyl-4-[2-(4-methylpiperazin-1-yl)ethoxy]phenyl}-6-(5-methylthiophen-3-yl)thieno[2,3-d]pyrimidin-4-yl]oxy}-3-phenylpropanoic acid]",,9.6e-08 M,1.7 µM,
"COc1ccccc1CC(Oc1ncnc2sc(-c3ccco3)c(-c3ccc(OC4CN5CCC4CC5)c(Cl)c3C)c12)C(=O)O (single isomer, unassigned) [Example 307, (2R)-2-({(5Sa)-5-[4-((3S or R)-1-azabicyclo[2.2.2]oct-3-yloxy)-3-chloro-2-methylphenyl]-6-(furan-2-yl)thieno[2,3-d]pyrimidin-4-yl}oxy)-3-(2-methoxyphenyl)propanoic acid]",8.3e-09 M,,0.998 µM,
"Cc1c(-c2c(-c3ccc(F)cc3)sc3ncnc(OC(Cc4ccccc4OCc4ccnc(-c5ccccc5CO)n4)C(=O)O)c23)ccc(OCCN(C)C)c1Cl [Example 832, (2R)-2-{[(5Sa)-5-{3-chloro-4-[2-(dimethylamino)ethoxy]-2-methylphenyl}-6-(4-fluorophenyl)thieno[2,3-d]pyrimidin-4-yl]oxy}-3-[2-({2-[2-(hydroxymethyl)phenyl]pyrimidin-4-yl}methoxy)phenyl]propanoic acid]",,,,"IC50 ([1]; fluorescence polarisation test, Method 1, or Method 2 where the value is underlined (underlining not visible)): 3.15e-09 M; IC50 ([2]; Homo sapiens, NCI-H929, 48 h, cell viability): 0.004 µM"
"Cc1c(-c2c(-c3ccc(F)o3)sc3ncnc(OC(Cc4ccccc4OCCOCCO)C(=O)O)c23)ccc(OCCN2CCN(C)CC2)c1Cl [Example 195, (2R)-2-{[(5Sa)-5-{3-chloro-2-methyl-4-[2-(4-methylpiperazin-1-yl)ethoxy]phenyl}-6-(5-fluorofuran-2-yl)thieno[2,3-d]pyrimidin-4-yl]oxy}-3-{2-[2-(2-hydroxyethoxy)ethoxy]phenyl}propanoic acid]",5.5e-09 M,,0.311 µM,
"Cc1c(-c2c(-c3ccc(F)cc3)sc3ncnc(OC(Cc4ccccc4OCc4cnccn4)C(=O)O)c23)ccc(OCCCC2CCCN2C)c1Cl [Example 146, (2R)-2-{[(5Sa)-5-{3-chloro-2-methyl-4-[3-(1-methylpyrrolidin-2-yl)propoxy]phenyl}-6-(4-fluorophenyl)thieno[2,3-d]pyrimidin-4-yl]oxy}-3-[2-(pyrazin-2-ylmethoxy)phenyl]propanoic acid]",3.5e-08 M,,1.16 µM,
"COc1ccccc1CC(Oc1ncnc2sc(-c3ccsc3)c(-c3ccc(OCCN4CCN(C)CC4)c(Cl)c3C)c12)C(=O)O [Example 568, (2R)-2-{[(5Sa)-5-{3-chloro-2-methyl-4-[2-(4-methylpiperazin-1-yl)ethoxy]phenyl}-6-(thiophen-3-yl)thieno[2,3-d]pyrimidin-4-yl]oxy}-3-(2-methoxyphenyl)propanoic acid]",,2.5e-08 M,0.22 µM,
"Cc1c(-c2c(-c3ccc(F)cc3)sc3ncnc(OC(Cc4ccccc4OCc4ccnc(-c5cccs5)n4)C(=O)O)c23)ccc(OCCN2CCN(C)CC2)c1Cl [Example 33, (2R)-2-{[(5Sa)-5-{3-chloro-2-methyl-4-[2-(4-methylpiperazin-1-yl)ethoxy]phenyl}-6-(4-fluorophenyl)thieno[2,3-d]pyrimidin-4-yl]oxy}-3-(2-{[2-(thiophen-2-yl)pyrimidin-4-yl]methoxy}phenyl)propanoic acid]",7.8e-09 M,,0.017 µM,
"Cc1c(-c2c(-c3ccco3)sc3ncnc(OC(Cc4ccccc4OCC4CCO4)C(=O)O)c23)ccc(OCCN2CCN(C)CC2)c1Cl [Example 266, (2R)-2-{[(5Sa)-5-{3-chloro-2-methyl-4-[2-(4-methylpiperazin-1-yl)ethoxy]phenyl}-6-(furan-2-yl)thieno[2,3-d]pyrimidin-4-yl]oxy}-3-[2-(oxetan-2-ylmethoxy)phenyl]propanoic acid]",5.7e-09 M,,0.093 µM,

# Now from value to compound, other results behind:
"IC50 [1, 3]","IC50 [1, 5]",Structure (SMILES),"IC50 [2, 4]",also measured
3.8e-09 M,,"COCCCn1nncc1COc1ccccc1CC(Oc1ncnc2sc(-c3ccc(F)cc3)c(-c3ccc(OCCN4CCN(C)CC4)c(Cl)c3C)c12)C(=O)O [Example 96, (2R)-2-{[(5Sa)-5-{3-chloro-2-methyl-4-[2-(4-methylpiperazin-1-yl)ethoxy]phenyl}-6-(4-fluorophenyl)thieno[2,3-d]pyrimidin-4-yl]oxy}-3-(2-{[1-(3-methoxypropyl)-1H-1,2,3-triazol-5-yl]methoxy}phenyl)propanoic acid]",0.034 µM,
,1.8e-08 M,"COc1ccccc1CC(Oc1ncnc2sc(-c3cccc(C#N)c3)c(-c3ccc(OCCN4CCN(C)CC4)c(Cl)c3C)c12)C(=O)O [Example 548, (2R)-2-{[(5Sa)-5-{3-chloro-2-methyl-4-[2-(4-methylpiperazin-1-yl)ethoxy]phenyl}-6-(3-cyanophenyl)thieno[2,3-d]pyrimidin-4-yl]oxy}-3-(2-methoxyphenyl)propanoic acid]",0.497 µM,
,5.1e-08 M,"CCc1sc2ncnc(OC(Cc3ccccc3)C(=O)O)c2c1-c1ccc(OCCN(CCO)CCO)c(Cl)c1C [Example 412, (2R)-2-{[(5Sa)-5-(4-{2-[bis(2-hydroxyethyl)amino]ethoxy}-3-chloro-2-methylphenyl)-6-ethylthieno[2,3-d]pyrimidin-4-yl]oxy}-3-phenylpropanoic acid]",28.7 µM,
5.1e-09 M,,"COc1nccc(COc2ccccc2CC(Oc2ncnc3sc(-c4ccc(Cl)o4)c(-c4ccc(OCCN5CCN(C)CC5)c(Cl)c4C)c23)C(=O)O)n1 [Example 369, (2R)-2-{[6-(5-chlorofuran-2-yl)-(5Sa)-5-{3-chloro-2-methyl-4-[2-(4-methylpiperazin-1-yl)ethoxy]phenyl}thieno[2,3-d]pyrimidin-4-yl]oxy}-3-{2-[(2-methoxypyrimidin-4-yl)methoxy]phenyl}propanoic acid]",0.009 µM,
1.5e-08 M,,"COc1ccccc1CC(Oc1ncnc2sc(-c3ccco3)c(-c3ccc(OCCN)c(Cl)c3C)c12)C(=O)O [Example 319, (2R)-2-({(5Sa)-5-[4-(2-aminoethoxy)-3-chloro-2-methylphenyl]-6-(furan-2-yl)thieno[2,3-d]pyrimidin-4-yl}oxy)-3-(2-methoxyphenyl)propanoic acid]",0.834 µM,
,6.8e-09 M,"CC#Cc1sc2ncnc(O[C@H](Cc3ccccc3OC)C(=O)O)c2c1-c1cc(C)c(OCCN2CCN(C)CC2)c(Cl)c1C [Example 475, (2R)-2-{[(5Sa)-5-{3-chloro-2,5-dimethyl-4-[2-(4-methylpiperazin-1-yl)ethoxy]phenyl}-6-(prop-1-yn-1-yl)thieno[2,3-d]pyrimidin-4-yl]oxy}-3-(2-methoxyphenyl)propanoic acid]",,IC50 ([2]; MTT): 1.12 µM
1.6e-08 M,,"COc1ccc(C)cc1CC(Oc1ncnc2sc(-c3ccco3)c(-c3ccc(OCCN4CCN(C)CC4)c(Cl)c3C)c12)C(=O)O [Example 344, (2R)-2-{[(5Sa)-5-{3-chloro-2-methyl-4-[2-(4-methylpiperazin-1-yl)ethoxy]phenyl}-6-(furan-2-yl)thieno[2,3-d]pyrimidin-4-yl]oxy}-3-(2-methoxy-5-methylphenyl)propanoic acid]",0.22 µM,
,3.5e-08 M,"CCc1sc2ncnc(OC(Cc3ccccc3)C(=O)O)c2c1-c1ccc(OCCCS(C)(=O)=O)c(Cl)c1C [Example 406, (2R)-2-[((5Sa)-5-{3-chloro-2-methyl-4-[3-(methylsulfonyl)propoxy]phenyl}-6-ethylthieno[2,3-d]pyrimidin-4-yl)oxy]-3-phenylpropanoic acid]",21.9 µM,
